Laboratory results from US5654139A (The United States of America as represented by the …, priority 1994, dated 1997).

Columns and labels:
human 5-HT2Cser receptor = target: T1, human 5-HT2Cser receptor (Homo sapiens, UniProt P28335); assay: Two-electrode voltage-clamp recording of 5-HT-activated currents in Xenopus oocytes expressing 5-HT2Cser; format: cell-based
T1 construct: consisting of the entire coding region of the 5-HT2C receptor; expressed in transfected cells; host or cells: Xenopus laevis oocytes injected with cRNA
T1 sequence (P28335 33-458): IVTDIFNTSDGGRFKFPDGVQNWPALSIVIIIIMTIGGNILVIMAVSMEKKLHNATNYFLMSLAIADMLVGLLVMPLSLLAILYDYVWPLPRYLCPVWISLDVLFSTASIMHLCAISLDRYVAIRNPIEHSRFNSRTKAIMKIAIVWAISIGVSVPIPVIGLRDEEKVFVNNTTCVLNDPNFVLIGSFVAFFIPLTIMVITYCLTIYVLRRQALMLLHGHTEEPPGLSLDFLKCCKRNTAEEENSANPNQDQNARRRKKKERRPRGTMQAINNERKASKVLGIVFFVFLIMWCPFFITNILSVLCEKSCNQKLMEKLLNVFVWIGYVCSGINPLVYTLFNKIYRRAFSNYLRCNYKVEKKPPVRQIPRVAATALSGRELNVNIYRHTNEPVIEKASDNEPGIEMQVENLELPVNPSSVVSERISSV

human 5-HT2Ccys receptor = target: T2, human 5-HT2Ccys receptor (Homo sapiens, UniProt P28335); assay: Two-electrode voltage-clamp recording of 5-HT-activated currents in Xenopus oocytes expressing 5-HT2Ccys; format: cell-based
T2 construct: consisting of the entire coding region of the 5-HT2C receptor; expressed in transfected cells; host or cells: Xenopus laevis oocytes injected with cRNA
T2 sequence (P28335 33-458): T1 sequence (P28335 33-458)

[1] = 1 μM PPRZ, voltage-clamp at -70 mV

Cl.c1ccc2c(N3CCNCC3)cccc2c1 [PPRZ, 1-(1-naphthyl) piperazine HCL]
effect on currents activated by 10 nM 5-HT (human 5-HT2Cser receptor; [1]): suppressed
reversibility of the effect of PPRZ on 5-HT-activated response (human 5-HT2Cser receptor; after a 20 min wash): reversible
effect on currents activated by 10 nM 5-HT (human 5-HT2Ccys receptor; [1]): suppressed
reversibility of the effect of PPRZ on 5-HT-activated response (human 5-HT2Ccys receptor; after a 20 min wash): reversible
